Laboratory results: the supplement of paper PMC10307832

Columns and labels:
Experiment in all cases: relative viability (nuclei count vs DMSO), 5 days (fraction); higher = more cells survive
AT-7519 + Lapatinib = compound: O=C(NC1CCNCC1)c1n[nH]cc1NC(=O)c1c(Cl)cccc1Cl [AT-7519] + CS(=O)(=O)CCNCc1ccc(-c2ccc3ncnc(Nc4ccc(OCc5cccc(F)c5)c(Cl)c4)c3c2)o1 [Lapatinib] (partner 2 µM)
In short: (§1)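 A single step with final 0.05% Triton X-100, 1% formaldehyde and 1 ug/ml Hoechst fixed the cells and stained nuclei 5 days after treatment. Lung cancer cell lines in 1536-well plates had been treated by pin tool the day after seeding with one drug alone or a fixed anchor-drug dose plus five library-drug doses (not always all listed) in √10 steps, and nuclei were counted on 4× images. Relative viability is the ratio of nuclei in treated wells to nuclei in vehicle wells, taken as the median of duplicate plates.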

AT-7519 + Trametinib = compound: O=C(NC1CCNCC1)c1n[nH]cc1NC(=O)c1c(Cl)cccc1Cl [AT-7519] + CC(=O)Nc1cccc(-n2c(=O)n(C3CC3)c(=O)c3c(Nc4ccc(I)cc4F)n(C)c(=O)c(C)c32)c1 [Trametinib] (partner 0.02 µM)
In short: as §1

AT-7519 + Decitabine = compound: O=C(NC1CCNCC1)c1n[nH]cc1NC(=O)c1c(Cl)cccc1Cl [AT-7519] + Nc1ncn([C@H]2C[C@H](O)[C@@H](CO)O2)c(=O)n1 [Decitabine] (partner 2 µM)
In short: as §1

[1] = compound: C1=CC2=C(C=C(C(=C2N=C1)O)N=NC3=CC4=C(C=C3)C=C(C=C4)S(=O)(=O)O)S(=O)(=O)O + Nc1nc2[nH]cc(CCc3ccc(C(=O)N[C@@H](CCC(=O)O)C(=O)O)cc3)c2c(=O)[nH]1 [Pemetrexed] (partner 0.2 µM)
In short: as §1

**Q.** How did the relative viability (AT-7519 + Lapatinib; first compound 0.01 µM) turn out when UMC-11 was run?
**A.** Its relative viability is 1.18.

**Q.** What about the relative viability (AT-7519 + Lapatinib; first compound 0.03162 µM) of the same cell line?
**A.** The relative viability was 0.988.

**Q.** And the relative viability (AT-7519 + Lapatinib; first compound 0.3162 µM)?
**A.** The relative viability was 0.519.

**Q.** What about the relative viability (AT-7519 + Lapatinib; first compound 1 µM) of the same cell line?
**A.** The relative viability was 0.252.

**Q.** What about the relative viability (AT-7519 + Trametinib; first compound 0.01 µM) of the same cell line?
**A.** Its relative viability is 0.593.

**Q.** And the relative viability (AT-7519 + Trametinib; first compound 0.03162 µM)?
**A.** The relative viability was 0.647.

**Q.** What about the relative viability (AT-7519 + Trametinib; first compound 0.3162 µM) of the same cell line?
**A.** The relative viability was 0.498.

**Q.** What about the relative viability (AT-7519 + Trametinib; first compound 1 µM) of the same cell line?
**A.** Its relative viability is 0.384.

**Q.** What about the relative viability (AT-7519 + Decitabine; first compound 0.01 µM) of the same cell line?
**A.** The relative viability was 0.675.

**Q.** What about the relative viability (AT-7519 + Decitabine; first compound 0.03162 µM) of the same cell line?
**A.** The relative viability was 0.551.

**Q.** What about the relative viability (AT-7519 + Decitabine; first compound 0.3162 µM) of the same cell line?
**A.** Its relative viability is 0.514.

**Q.** What about the relative viability (AT-7519 + Decitabine; first compound 1 µM) of the same cell line?
**A.** The relative viability was 0.306.

**Q.** What about the relative viability ([1]; first compound 0.08 µM) of the same cell line?
**A.** The relative viability was 0.754.

**Q.** What about the relative viability ([1]; first compound 0.253 µM) of the same cell line?
**A.** Its relative viability is 0.853.

**Q.** What about the relative viability ([1]; first compound 0.8 µM) of the same cell line?
**A.** Its relative viability is 0.783.

**Q.** What about the relative viability ([1]; first compound 2.53 µM) of the same cell line?
**A.** The relative viability was 0.717.

**Q.** What about the relative viability ([1]; first compound 8 µM) of the same cell line?
**A.** The relative viability was 0.768.
